Earlier results as cited in article PMC3674230 (Chemical communications (Cambridge, England), 2012).

Tested on: Zn(II)-dependent matrix metalloproteinases (MMP)
Conditions: direct metal coordination

SMILES: CC(=O)NO [acetohydroxamic acid]
- IC50: ~25 mM
